Values quoted from earlier work, collected in patent US20250057795A1 (priority 2023, published 2025).
Where two headings read alike, the source gives them in different places. Values belong to the compound of their own block, whether it stands above or below them.

Experiments:
[1] = target: T1, GPR143 (Homo sapiens, UniProt P51810); settings: retinal pigment epithelial cells
[2] = target: T1, GPR143; settings: same site as L-DOPA
[3] = compared with Levodopa; due to increased solubility
[4] = target: T1, GPR143

T1 sequence (P51810 whole entry): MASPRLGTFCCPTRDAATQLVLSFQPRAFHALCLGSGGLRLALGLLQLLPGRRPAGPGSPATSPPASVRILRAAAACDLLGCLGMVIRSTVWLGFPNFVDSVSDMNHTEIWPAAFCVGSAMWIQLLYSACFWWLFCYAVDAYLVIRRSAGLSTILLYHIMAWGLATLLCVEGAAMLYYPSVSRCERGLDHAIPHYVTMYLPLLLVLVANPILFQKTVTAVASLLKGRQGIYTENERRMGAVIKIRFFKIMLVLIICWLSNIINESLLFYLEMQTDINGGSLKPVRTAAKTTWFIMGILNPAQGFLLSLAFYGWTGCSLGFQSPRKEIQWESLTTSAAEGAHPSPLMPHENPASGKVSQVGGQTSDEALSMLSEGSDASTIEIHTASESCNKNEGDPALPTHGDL

affinity for GPR143 [2]: near-equal affinity to L-DOPA
Structure (SMILES): NCCc1ccc(O)c(O)c1 [dopamine]
release / production of VEGF (and exosomes) [1]: stimulated the release of VEGF and exosomes

ocular penetration [3]: increased ocular penetration
Structure (SMILES): CCOC(=O)[C@@H](N)Cc1ccc(O)c(O)c1 [Etilevodopa]

need for anti-VEGF injections ([4]; continued Levodopa therapy, compared to historical controls): decreased need for anti-VEGF injections
vision ([4]; new onset nAMD, naive to anti-VEGF, 1 month): improved vision
release / production of VEGF (and exosomes) [1]: downregulates the production of VEGF
release of PEDF [1]: significantly upregulates
release of PEDF ([1]; listed as L-DOPA): stimulated the release of PEDF
Structure (SMILES): N[C@@H](Cc1ccc(O)c(O)c1)C(=O)O [Levodopa]

water solubility: practically insoluble
Structure (SMILES): COc1ccc2[nH]cc(CCNC(C)=O)c2c1 [Melatonin]
